Data published in US20230111853A1, “COMPOUNDS MODULATING PROTEIN RECRUITMENT AND/OR DEGRADATION” (Orionis Biosciences, Inc., priority 2019, published 2023).

Tested on: IKZF1, ASS1 and SALL4 recruitment to CRBN
Experiment: Recruitment assessment: recruitment of any tested substrate from among IKZF1, ASS1 and SALL4
Type: cell-based
Conditions: any tested substrate at any tested compound concentration
Procedure: In this experimental set-up, cells were transfected with a construct encoding a CRBN-fusion protein and another one encoding a substrate-fusion protein. Test compound activity was assessed with increasing concentrations of test compounds (dose-response studies) to monitor the ability to promote CRBN-ligand-induced protein interaction.
Full size proteins were fused for each of the target proteins tested, except in the case of IKZF1 where isoform 7 was used. For the study, the following were used: IKZF1 recruitment: pSEL-CRBN+pMG1-IKZF1(isoform 7); ASS1 recruitment: pSEL-CRBN+pMG1-ASS1. SALL4 recruitment: pSEL-SALL4+pMG1-CRBN. […] Luciferase activity was measured 24 hours after test compound treatment using the Luciferase Assay System kit (PROMEGA, Madison, Wis.) with an Ensight plate reader (PERKIN ELMER LIFE SCIENCES, Waltham, Mass.). Data points depicted fold induction of the average luciferase activity of triplicate samples from EPO+test compound treated cells versus EPO only treated cells. Error bars represent standard deviations. Curves were fit using 4-parameter nonlinear regression in […] PRISM software.

Q: For O=C1c2c(F)c(F)c(F)c(F)c2C(=O)N1c1ccc(F)cc1F [C34491, 2-(2,4-difluorophenyl)-4,5,6,7-tetrafluoro-isoindoline-1,3-dione], which “Recruitment Assessment” value is on record?
A: Its value is “FALSE”.

Q: Which “Recruitment Assessment” value does the source give for Nc1cccc2c(=O)n(C3CCC(=O)NC3=O)nnc12 (centres unmarked) [C35833, 3-(8-amino-4-oxo-1,2,3-benzotriazin-3-yl)piperidine-2,6-dione] here?
A: The value was “FALSE”.

Q: How did the “Recruitment Assessment” value turn out when COc1cnccc1C(=O)Nc1ccc2c(c1)=NC(=O)N=2 [C36124, 3-methoxy-N-(2-oxobenzimidazol-5-yl)pyridine-4-carboxamide] was run?
A: Its value is “FALSE”.

Q: Which “Recruitment Assessment” value does the source give for O=C1CCc2cc(C(=O)N3CCCc4ccccc43)cnc2N1 [C36126, 6-(3,4-dihydro-2H-quinoline-1-carbonyl)-3,4-dihydro-1H-1,8-naphthyridin-2-one] here?
A: Its value is “FALSE”.

Q: How did the “Recruitment Assessment” value turn out when O=C1CCc2cc(C(=O)N3CCc4cccnc43)cnc2N1 [C36128, 6-(2,3-dihydropyrrolo[2,3-b]pyridine-1-carbonyl)-3,4-dihydro-1H-1,8-naphthyridin-2-one] was run?
A: The value was “FALSE”.

Q: How did the “Recruitment Assessment” value turn out when Cc1c(N)cccc1C(=O)NC1CCC(=O)NC1=O (centres unmarked) [C38930, 3-amino-N-(2,6-dioxo-3-piperidyl)-2-methyl-benzamide] was run?
A: The value was “FALSE”.

Q: NC(=O)c1ccc2c(c1)C(=O)N(C1CCC(=O)NC1=O)C2 (centres unmarked) [C39772, 2-(2,6-dioxo-3-piperidyl)-3-oxo-isoindoline-5-carboxamide] was tested. Which “Recruitment Assessment” value did it give?
A: Its value is “FALSE”.

Q: Which “Recruitment Assessment” value does the source give for O=C1CCC(Nc2cnc3ccccc3n2)C(=O)N1 (centres unmarked) [C44292, 3-(quinoxalin-2-ylamino)piperidine-2,6-dione] here?
A: The value was “FALSE”.

Q: O=C1CCC(N2Cc3ccc(C(F)(F)F)cc3C2=O)C(=O)N1 (centres unmarked) [C45748, 3-[1-oxo-6-(trifluoromethyl)isoindolin-2-yl]piperidine-2,6-dione] was tested. Which “Recruitment Assessment” value did it give?
A: Its value is “FALSE”.

Q: O=C1CCC(N2C(=O)c3ccccc3C2NC(=O)c2ccccc2)C(=O)N1 (centres unmarked) [C46003, N-[2-(2,6-dioxo-3-piperidyl)-3-oxo-isoindolin-1-yl]benzamide] was tested. Which “Recruitment Assessment” value did it give?
A: The value was “FALSE”.

Q: For Nc1cccc2c1CN(C1CC(=O)NC(=O)C1)C2=O [C47927, 4-(4-amino-1-oxo-isoindolin-2-yl)piperidine-2,6-dione], which “Recruitment Assessment” value is on record?
A: Its value is “TRUE”.

Q: Nc1cccc2c1CN(C1CNC(=O)NC1=O)C2=O (centres unmarked) [C47928, 5-(4-amino-1-oxo-isoindolin-2-yl)hexahydropyrimidine-2,4-dione] was tested. Which “Recruitment Assessment” value did it give?
A: The value was “FALSE”.

Q: Which “Recruitment Assessment” value does the source give for Nc1cccc2c1CN(C1CCCC(=O)NC1=O)C2=O (centres unmarked) [C47932, 3-(4-amino-1-oxo-isoindolin-2-yl)azepane-2,7-dione] here?
A: The value was “TRUE”.

Q: For Nc1cccc2c1CCN(C1CCC(=O)NC1=O)C2=O (centres unmarked) [C47933, 3-(5-amino-1-oxo-3,4-dihydroisoquinolin-2-yl)piperidine-2,6-dione], which “Recruitment Assessment” value is on record?
A: Its value is “TRUE”.

Q: With O=C(O)CNc1ccc2c(c1)C(=O)N(C1CCC(=O)NC1=O)C2 (centres unmarked) [C47997, 2-[[2-(2,6-dioxo-3-piperidyl)-3-oxo-isoindolin-5-yl]amino]acetic acid] as the compound, how does the “Recruitment Assessment” value read?
A: Its value is “FALSE”.

Q: Which “Recruitment Assessment” value does the source give for N#Cc1cccc2c1C(=O)N(C1CCC(=O)NC1=O)C2 (centres unmarked) [C48009, 2-(2,6-dioxo-3-piperidyl)-3-oxo-isoindoline-4-carbonitrile] here?
A: Its value is “FALSE”.

Q: O=C1CCC(N2Cc3cccc(-c4ccccc4)c3C2=O)C(=O)N1 (centres unmarked) [C48020, 3-(1-oxo-7-phenyl-isoindolin-2-yl)piperidine-2,6-dione] was tested. Which “Recruitment Assessment” value did it give?
A: The value was “FALSE”.

Q: Which “Recruitment Assessment” value does the source give for O=C1N=CC(N2C(=O)c3ccccc3C2=O)C(=O)N1 (centres unmarked) [C49278, 2-(2,6-dioxo-5H-pyrimidin-5-yl)isoindoline-1,3-dione] here?
A: Its value is “FALSE”.

Q: Which “Recruitment Assessment” value does the source give for CN(C)CC(=O)Nc1ccc2c(c1)C(=O)N(C1CCC(=O)NC1=O)C2 (centres unmarked) [C49708, 2-(dimethylamino)-N-[2-(2,6-dioxo-3-piperidyl)-3-oxo-isoindolin-5-yl]acetamide] here?
A: Its value is “FALSE”.

Q: For O=C1CCC(N2C(=O)c3ccccc3C2C2=c3ccccc3=NC2)C(=O)N1 (centres unmarked) [C49713, 3-[1-(2H-indol-3-yl)-3-oxo-isoindolin-2-yl]piperidine-2,6-dione], which “Recruitment Assessment” value is on record?
A: Its value is “FALSE”.

Q: How did the “Recruitment Assessment” value turn out when O=C1CCC(N2C(=O)C3CC=CCC3C2=O)C(=O)N1 (centres unmarked) [C51647, 2-(2,6-dioxo-3-piperidyl)-3a,4,7,7a-tetrahydroisoindole-1,3-dione] was run?
A: The value was “FALSE”.

Q: With O=C1CCC(Nc2ncccn2)C(=O)N1 (centres unmarked) [C55468, 3-(pyrimidin-2-ylamino)piperidine-2,6-dione] as the compound, how does the “Recruitment Assessment” value read?
A: The value was “FALSE”.

Q: How did the “Recruitment Assessment” value turn out when Nc1cccc2c1CN(C1CCS(=O)(=O)NC1=O)C2=O (centres unmarked) [C55859, 4-(4-Amino-1-oxoisoindolin-2yl)-1,2-thiazinan-3-one 1,1-dioxide] was run?
A: Its value is “FALSE”.

Q: Which “Recruitment Assessment” value does the source give for COC1c2ccccc2C(=O)N1C1CCC(=O)NC1=O (centres unmarked) [C56572, 3-(1-methoxy-3-oxo-isoindolin-2-yl)piperidine-2,6-dione] here?
A: The value was “FALSE”.

Q: For Cc1ccc(NC(=O)NCc2cc(C)c3c(c2)CN(C2CCC(=O)NC2=O)C3=O)cc1Cl (centres unmarked) [C58181, 1-(3-chloro-4-methyl-phenyl)-3-[[2-(2,6-dioxo-3-piperidyl)-7-methyl-1-oxo-isoindolin-5-yl]methyl]urea], which “Recruitment Assessment” value is on record?
A: The value was “TRUE”.

Q: O=C1CCC(N2Cn3c(cccc3=O)C2=O)C(=O)N1 (centres unmarked) [C60651, 2-(2,6-dioxo-3-piperidyl)-3H-imidazo[1,5-a]pyridine-1,5-dione] was tested. Which “Recruitment Assessment” value did it give?
A: Its value is “FALSE”.

Q: How did the “Recruitment Assessment” value turn out when O=C1CCC(N2C(=O)C=C(c3ccccc3)C2=O)C(=O)N1 (centres unmarked) [C64319, 3-(2,5-dioxo-3-phenyl-pyrrol-1-yl)piperidine-2,6-dione] was run?
A: The value was “FALSE”.

Q: Which “Recruitment Assessment” value does the source give for O=C1CCC(N2C(=O)C3=C(CCC3)C2=O)C(=O)N1 (centres unmarked) [C64324, 2-(2,6-dioxo-3-piperidyl)-5,6-dihydro-4H-cyclopenta[c] pyrrole-1,3-dione] here?
A: Its value is “FALSE”.

Q: Which “Recruitment Assessment” value does the source give for O=C1CCC(N2C(=O)CC3(Cc4ccccc4C3)C2=O)C(=O)N1 (centres unmarked) [C64329, 1′-(2,6-dioxo-3-piperidyl)spiro[indane-2,3′-pyrrolidine]-2′,5′-dione] here?
A: The value was “FALSE”.

Q: Which “Recruitment Assessment” value does the source give for O=C1CCC(N2C(=O)CC(NC(=O)OCc3ccccc3)C2=O)C(=O)N1 (centres unmarked) [C64344, benzyl N-[1-(2,6-dioxo-3-piperidyl)-2,5-dioxo-pyrrolidin-3-yl]carbamate] here?
A: Its value is “FALSE”.

Q: O=C1CCC(N2C(=O)CC3(CCOCC3)C2=O)C(=O)N1 (centres unmarked) [C64348, 2-(2,6-dioxo-3-piperidyl)-8-oxa-2-azaspiro[4.5]decane-1,3-dione] was tested. Which “Recruitment Assessment” value did it give?
A: The value was “FALSE”.

Q: Which “Recruitment Assessment” value does the source give for CN1CCC2(CC1)CC(=O)N(C1CCC(=O)NC1=O)C2=O (centres unmarked) [C64372, 2-(2,6-dioxo-3-piperidyl)-8-methyl-2,8-diazaspiro[4.5]decane-1,3-dione] here?
A: The value was “FALSE”.

Q: With Cc1nc(N(C)C)cc2c1C(=O)N(C1CCC(=O)NC1=O)C2=O (centres unmarked) [C64376, 6-(dimethylamino)-2-(2,6-dioxo-3-piperidyl)-4-methyl-pyrrolo[3,4-c] pyridine-1,3-dione] as the compound, how does the “Recruitment Assessment” value read?
A: The value was “FALSE”.

Q: With NCc1ccc2c(c1)C(=O)N(C1CCC(=O)NC1=O)C2 (centres unmarked) [C66979, 3-[6-(aminomethyl)-1-oxo-isoindolin-2-yl]piperidine-2,6-dione] as the compound, how does the “Recruitment Assessment” value read?
A: Its value is “FALSE”.

Q: For Cc1cccc2c1C(=O)N(C1CCC(=O)NC1=O)S2(=O)=O (centres unmarked) [C73349, 3-(4-methyl-1,1,3-trioxo-1,2-benzothiazol-2-yl)piperidine-2,6-dione], which “Recruitment Assessment” value is on record?
A: Its value is “FALSE”.

Q: COc1ccc(Br)c2c1C(=O)N(C1CCC(=O)NC1=O)C2 (centres unmarked) [C74668, 3-(4-bromo-7-methoxy-1-oxo-isoindolin-2-yl)piperidine-2,6-dione] was tested. Which “Recruitment Assessment” value did it give?
A: Its value is “FALSE”.

Q: With Cc1cccc2c1S(=O)(=O)N(C1CCC(=O)NC1=O)C2=O (centres unmarked) [C75688, 3-(7-methyl-1,1,3-trioxo-1,2-benzothiazol-2-yl)piperidine-2,6-dione] as the compound, how does the “Recruitment Assessment” value read?
A: The value was “FALSE”.

Q: Cl.NC1Cc2ccccc2C1=O (centres unmarked) [C75987, 2-aminoindan-1-one; hydrochloride] was tested. Which “Recruitment Assessment” value did it give?
A: The value was “FALSE”.

Q: With O=C1CCC(N2Cc3cc(Nc4ncnc5sccc45)ccc3C2=O)C(=O)N1 (centres unmarked) [C80370, 3-[1-oxo-5-(thieno[2,3-d]pyrimidin-4-ylamino)isoindolin-2-yl] piperidine-2,6-dione] as the compound, how does the “Recruitment Assessment” value read?
A: The value was “FALSE”.

Q: With O=C1CCC(N2Cc3cc(Nc4ncnc5ccccc45)ccc3C2=O)C(=O)N1 (centres unmarked) [C80373, 3-[-oxo-5-(quinazolin-4-ylamino)isoindolin-2-yl]piperidine-2,6-dione] as the compound, how does the “Recruitment Assessment” value read?
A: Its value is “TRUE”.

Q: How did the “Recruitment Assessment” value turn out when Cn1ncc2c(Nc3ccc4c(c3)CN(C3CCC(=O)NC3=O)C4=O)ncnc21 (centres unmarked) [C80374, 3-[5-[(1-methylpyrazolo[3,4-d]pyrimidin-4-yl)amino]-1-oxo-isoindolin-2-yl]piperidine-2,6-dione] was run?
A: Its value is “TRUE”.

Q: How did the “Recruitment Assessment” value turn out when Nc1nccc(Nc2ccc3c(c2)CN(C2CCC(=O)NC2=O)C3=O)n1 (centres unmarked) [C80375, 3-[5-[(2-aminopyrimidm-4-yl)amino]-1-oxo-isoindolin-2-yl] piperidine-2,6-dione] was run?
A: The value was “FALSE”.

Q: Which “Recruitment Assessment” value does the source give for Nc1nc(Nc2ccc3c(c2)CN(C2CCC(=O)NC2=O)C3=O)nc2sccc12 (centres unmarked) [C80379, 3-[5-[(4-aminothieno[2,3-d]pyrimidin-2-yl)amino]-1-oxo-isoindolin-2-yl]piperidine-2,6-dione] here?
A: The value was “TRUE”.

Q: For CC(=O)O.O=C1CCC(N2Cc3ccc(Nc4ncnc5ccccc45)cc3C2=O)C(=O)N1 (centres unmarked) [C80382 acetic acid salt, acetic acid; 3-[1-oxo-6-(quinazolin-4-ylamino)isoindolin-2-yl]piperidine-2,6-dione], which “Recruitment Assessment” value is on record?
A: Its value is “FALSE”.
